Data set [1] addresses T1, CYP3A4 (Homo sapiens (Human), UniProt P08684). Kind of data set: Reversible CYP inhibition in human liver microsomes (midazolam probe). It is filed as in vitro ADME. The settings on record: human liver microsomes 0.1 mg/mL, 2.5 μM midazolam, 5 min, test compound up to 30 μM. As for the experimental part:
A seven-point semi-log dilution of each test compound (up to […]) or positive control inhibitors for CYP2C9 (up to 1000 nM sulphenazole), CYP2D6 (up to 500 nM quinidine) and CYP3A4 (up to 250 nM ketoconazole) were dissolved in DMSO and added to the incubation plate using a Tecan 300 (normalized for 0.3% DMSO content). Final reaction conditions were: human liver microsomes (0.1 mg/mL), potassium phosphate buffer 100 mM pH 7.4, 1 mM magnesium chloride, 5 NM diclofenac, 5 NM dextromethorphan and 2.5 μM midazolam. After a pre-incubation at 37 00. The reaction was started with the addition of NADPH solution at the final concentration of 1 mM and carried out at 37 00 for 5 minutes. The reaction was stopped by the addition of 1 volume of cold acetonitrile with internal standard (labetalol) to the incubation plate. The incubation plate was centrifuged at 3000 rpm for 10 minutes to precipitate proteins, and the supernatant was analyzed by LC-MS/MS. Metabolite area ratio (4-OH-diclofenac, dextrorphan and 1-OH-midazolam) versus ISTD area ratio was used as the quantitative signal. Data were analyzed using the plot log of concentration (×-axis) versus the percentage of inhibition (y axis) and the IC50, Hill Slope and R^2 were determined.
On the technique in general: Microsomes from liver hold many membrane-bound enzymes, among them those of drug oxidation.

Data set [2] in a line: Liver microsomal stability assay. It is filed as in vitro ADME. The settings on record: pH 7.4; human liver microsomes 0.5 mg/mL, 1 μM compound, NADPH 1 mM, 37 °C. As for the experimental part: Liver microsomes were thawed on ice prior to use. The incubation mixtures were prepared in 96-well plates and contained test compound or control (1 μM), liver microsomes (0.5 mg of microsomal protein/mL), MgCl2 (5 mM), phosphate buffer (100 mM, pH 7.4), 0.01% DMSO and 1% acetonitrile. A T=0 aliquot was withdrawn after 10 min pre-incubation at 37° C. on a shaker. Reactions were initiated by the addition of NADPH (final concentration of 1 mM) and the plate was kept on a shaker at 37° C., further samples were withdrawn at 5, 15, 30, and 60 minutes. At each timepoint, the reactions were immediately terminated by adding of ice-cold acetonitrile containing internal standard to the withdrawn sample. The extracted samples were centrifuged for 10 minutes at 3200 rpm to pellet the precipitated microsomal protein, and the supernatant was combined 1:1 with water and analyzed by LC-MS/MS. Using the T=0 peak area ratio as 100%, the percentage of parent compound remaining was calculated. For each compound, the In percentage remaining versus incubation time was plotted and the slope of this linear regression (−k) was converted to an in vitro T1/2 value and CLint using the equations below.

The target of data set [3] is T1, CYP3A4. Kind of data set: TDI method: time-dependent CYP inhibition, IC50 shift -NADPH/+NADPH. The conditions noted are these: IC50 (-NADPH) divided by IC50 (+NADPH), 30 min pre-incubation, human liver microsomes. Type of data set: in vitro ADME. Here is the method:
Test compound or positive control inhibitors (CYP2C9: Tienilic acid; CYP2D6: paroxetine; CYP3A4: mifepristone) were dissolved in DMSO and a semi-log dilution (up to 50.0 μM) was prepared to 2 incubation plates and normalized for a final DMSO content of 0.5%. Human liver microsomes were diluted at 1 mg/mL with 100 mM potassium phosphate buffer pH 7.4 (1 mM MgCl2) and added to both incubation plates. After pre-incubation at 37° C., the reaction was started with the addition of NADPH (+NADPH condition) or with water (-NADPH condition). Plates were incubated for 30 min and 8 μL were transferred to a second incubation plate containing 72 μL of 1 mM NADPH, 20 μM diclofenac (CYP2C9), 20 μM dextromethorphan (CYP2D6) and 10 μM midazolam (CYP3A4) in 100 mM potassium phosphate buffer pH 7.4 (1 mM MgCl2). Plates were incubated for 10 min and the reaction was stopped by the addition of cold acetonitrile containing internal standard (1:1 v/v). Incubation plates were centrifuged at 3000 rpm for 10 minutes to precipitate protein, and the supernatant was used for LC-MS/MS analysis. Metabolite area ratio (4-OH-diclofenac, dextrorphan and 1-OH-midazolam) versus internal standard area ratio was used as the quantitative signal. Data were analyzed using the plot log of concentration (x axis) versus the percentage of inhibition (y axis) and IC50, Hill Slope and R^2 were determined. The IC50 shift was then calculated by dividing the IC50-NADPH condition by the IC50 obtained in the +NADPH condition.

A further data set has as its target PXR nuclear receptor (Homo sapiens (Human), UniProt O75469). Kind of data set: PXR method: luciferase reporter gene activation in transfected tumor cells. Type of data set: cell-based. The settings on record: test compound 0.03-10 μM; for fold induction at 24 h: compared with vehicle-treated cells, read-out: PXR activation (Max fold induction); for PXR activation (% Max activity): percentage of the response given by Rifampicin at 10 μM, 24 h. As for the experimental part: An expression vector harboring a full-length PXR nuclear receptor plus the appropriate enhancers and promoters linked to the luciferase reporter gene were integrated into the tumor cells. Tumor cells transfected with the species-specific nuclear receptor and the corresponding response elements were seeded in a 96-well plate. Twenty-four hours after seeding, the cells were treated with six distinct concentrations (0.03-10 μM) of the test compound. The cells were then returned to the incubator for an additional 24 h. After this incubation period, the number of viable cells/well were determined using Promega's Cell Titer Fluor cytotoxicity assay. At the end of the assay, Promega's ONE-Glo was added to assess the receptor activation by monitoring reporter gene activity, and by comparing the results to vehicle-treated cells. Activation data were normalized to the number of viable cells/well. Results are expressed as a percentage of the response given by Rifampicin, the positive control, at a 10 μM dose.
Background: In a reporter assay the amount or activity of a reporter protein is the signal.

The target in data set [4] is PolQ ATPase enzyme (1-894) (Homo sapiens (Human), UniProt O75417). Kind of data set: Polθ ATPase enzymatic assay (0.5 nM enzyme concentration), ADP-Glo. Type of data set: biochemical. The conditions noted are these: average IC50; 0.5 nM PolQ ATPase enzyme (1-894). The method, boiled down: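 Enzyme (0.5 nM) pre-incubated 15 min at rt with 10-point inhibitor series in 50 mM Tris pH 7.5, 10% glycerol, 5 mM DTT, 10 mM MgCl2, 0.1 mg/ml BSA; reaction started with 20 nM fork DNA and 100 μM ATP, run 180 min at rt. ADP-Glo luminescence; IC50 from 4-parameter variable-slope fit.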
Chain of PolQ ATPase enzyme (1-894) (O75417 1-894): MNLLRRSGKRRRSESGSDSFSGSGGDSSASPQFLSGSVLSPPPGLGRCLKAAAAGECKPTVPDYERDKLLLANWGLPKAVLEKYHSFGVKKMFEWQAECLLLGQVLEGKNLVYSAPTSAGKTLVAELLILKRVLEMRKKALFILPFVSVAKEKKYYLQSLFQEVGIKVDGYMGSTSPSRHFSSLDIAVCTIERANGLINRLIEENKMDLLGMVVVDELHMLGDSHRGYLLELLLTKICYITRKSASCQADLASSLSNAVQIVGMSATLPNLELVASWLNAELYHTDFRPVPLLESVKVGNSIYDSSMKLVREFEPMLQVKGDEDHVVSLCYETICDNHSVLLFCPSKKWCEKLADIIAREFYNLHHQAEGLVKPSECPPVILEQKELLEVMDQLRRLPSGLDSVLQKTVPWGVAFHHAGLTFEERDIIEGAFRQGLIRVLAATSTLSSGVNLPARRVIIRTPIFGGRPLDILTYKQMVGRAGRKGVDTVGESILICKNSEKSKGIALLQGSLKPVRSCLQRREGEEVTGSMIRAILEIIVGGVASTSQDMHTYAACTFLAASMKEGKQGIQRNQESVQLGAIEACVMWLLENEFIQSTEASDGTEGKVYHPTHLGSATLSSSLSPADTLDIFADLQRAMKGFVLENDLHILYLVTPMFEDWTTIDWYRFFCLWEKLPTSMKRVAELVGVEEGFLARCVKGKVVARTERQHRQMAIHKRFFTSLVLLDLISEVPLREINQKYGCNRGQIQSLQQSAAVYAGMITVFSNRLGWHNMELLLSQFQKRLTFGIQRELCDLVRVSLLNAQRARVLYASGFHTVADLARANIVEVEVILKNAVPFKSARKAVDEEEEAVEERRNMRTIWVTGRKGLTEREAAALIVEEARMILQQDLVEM
On the technique in general: ADP-Glo turns the ADP formed in a reaction into a luminescent signal.

Some results are limits rather than exact numbers.

Results on five compounds are retold here after US20250026748A1, “N-(5-SUBSTITUTED-[(1,3,4-THIADIAZOLYL) OR (THIAZOLYL)])(SUBSTITUTED)CARBOXAMIDE COMPOUNDS AND USE THEREOF FOR INHIBITING HUMAN POLYMERASE THETA” (Repare Therapeutics Inc., priority 2021, published 2025).

T1 sequence (P08684 whole entry): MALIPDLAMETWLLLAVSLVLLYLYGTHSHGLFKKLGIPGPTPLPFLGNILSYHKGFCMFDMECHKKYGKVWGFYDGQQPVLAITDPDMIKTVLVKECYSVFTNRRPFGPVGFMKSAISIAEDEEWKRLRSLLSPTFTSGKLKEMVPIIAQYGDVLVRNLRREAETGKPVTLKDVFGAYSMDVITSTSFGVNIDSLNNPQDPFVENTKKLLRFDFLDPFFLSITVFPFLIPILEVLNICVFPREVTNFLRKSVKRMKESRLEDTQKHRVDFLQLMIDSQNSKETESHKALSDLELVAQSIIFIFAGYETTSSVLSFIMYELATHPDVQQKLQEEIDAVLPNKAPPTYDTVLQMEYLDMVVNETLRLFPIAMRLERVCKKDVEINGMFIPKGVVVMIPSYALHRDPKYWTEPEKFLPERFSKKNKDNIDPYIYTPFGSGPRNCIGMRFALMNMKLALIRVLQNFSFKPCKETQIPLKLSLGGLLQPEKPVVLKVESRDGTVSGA
Chain of PXR nuclear receptor (O75469 whole entry): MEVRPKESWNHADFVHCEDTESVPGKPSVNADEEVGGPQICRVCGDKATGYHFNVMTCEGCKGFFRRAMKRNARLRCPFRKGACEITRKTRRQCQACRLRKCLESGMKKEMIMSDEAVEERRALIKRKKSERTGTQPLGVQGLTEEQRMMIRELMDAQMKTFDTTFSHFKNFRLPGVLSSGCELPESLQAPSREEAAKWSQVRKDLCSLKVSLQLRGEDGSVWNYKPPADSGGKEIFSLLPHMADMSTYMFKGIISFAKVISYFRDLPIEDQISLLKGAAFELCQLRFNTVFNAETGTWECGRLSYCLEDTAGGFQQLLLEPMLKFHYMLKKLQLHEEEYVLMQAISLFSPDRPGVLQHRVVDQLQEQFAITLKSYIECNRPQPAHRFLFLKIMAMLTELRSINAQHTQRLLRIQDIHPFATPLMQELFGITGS

For the compound `C=C(C1=CN=CCC1C(=O)Nc1nnc(CCC2CC2)s1)/C(=C\N=C\Cl)OC` (centres unmarked), at CYP3A4 [1], the IC50 (usually the point on the concentration scale where inhibition reaches its midpoint) was above 30000 nM. For the same compound, the microsomal CLint (commonly the capacity of the preparation to metabolise the compound, expressed as a volume cleared per time) at 1 μM in data set [2] is below 7.7 µL/min/mg. Moreover, at CYP3A4 [3], the “Time-dependent CYP3A4 inhibition-shift after 30 min with NADPH” value (shortened to “Time-dependent CYP3A4 inhibition-shift”) is 1x. In addition, at PXR nuclear receptor, the fold induction at 24 h is 1.8 and the “PXR activation (% Max activity)” value is 5.0%.

As for `COc1ccccc1-c1cnccc1C(=O)Nc1nnc(OCc2ccc(Cl)cc2)s1`, the concentration for half-maximal inhibition (IC50) against CYP3A4 [1] was 1170 nM. Further, in data set [2], the microsomal CLint at 1 μM was determined as 262 µL/min/mg. In addition, on CYP3A4 [3], the “Time-dependent CYP3A4 inhibition-shift” value is given as above 6.5x. In addition, at PXR nuclear receptor, the fold induction at 24 h was 8.8 and the “PXR activation (% Max activity)” value is recorded as 46.0%.

At CYP3A4 [1], `COc1ccc(F)cc1-c1cnccc1C(=O)Nc1nnc(OCc2ccc(C#N)cc2)s1` returned an IC50 of 234 nM. This compound displayed an intrinsic clearance (microsomal CLint) at 1 μM in data set [2] of 174 µL/min/mg. Besides, the “Time-dependent CYP3A4 inhibition-shift” value at CYP3A4 [3] was 1x. Also, at PXR nuclear receptor, the fold induction at 24 h came to 3.9 and the “PXR activation (% Max activity)” value was found to be 17%.

For the compound `COc1ccccc1-c1cnccc1C(=O)Nc1nnc(OCc2ccc(C#N)cc2)s1`, on CYP3A4 [1], the IC50 worked out at 450 nM. For the same compound, in data set [2], the microsomal CLint at 1 μM worked out at 234 µL/min/mg. Moreover, the “Time-dependent CYP3A4 inhibition-shift” value on CYP3A4 [3] is listed as 3.6x. On PXR nuclear receptor, the fold induction at 24 h amounted to 7.9 and the “PXR activation (% Max activity)” value came to 36.0%.

Regarding `COc1ccccc1-c1cnccc1C(=O)Nc1nnc(C#Cc2ccc(Cl)cc2)s1` [Compound 474], in data set [4], the midpoint of inhibition, the IC50, lay at 7.6 nM. The same compound came in with a half-inhibitory concentration (IC50) against CYP3A4 [1] of 1940 nM. In data set [2], this compound registered a microsomal CLint at 1 μM of 22.5 µL/min/mg. The “Time-dependent CYP3A4 inhibition-shift” value on CYP3A4 [3] was found to be 1x. On PXR nuclear receptor, the fold induction at 24 h is 1.5 and the “PXR activation (% Max activity)” value was determined as 3.0%.
